Laboratory results published in ChEMBL document CHEMBL1909046, “DrugMatrix in vitro pharmacology data”.
pIC50, pKi: −log10 of the molar value.

Assays:
Glycine receptor = Glycine receptor (Rattus norvegicus, UniProt P22771+P24524+P07727+P20781); assay type: cell membranes, Wistar, Spinal cord, Membrane; also: in other assays of this panel Not Active means under 50% inhibition at 10 µM
[1] = biological target: cGMP-specific 3',5'-cyclic phosphodiesterase (Homo sapiens, UniProt O76074); experiment: DRUGMATRIX: Phosphodiesterase PDE5 enzyme inhibition (substrate: [3H]cGMP + cGMP); assay type: tissue-based; conditions: platelet; Not Active = under 50% inhibition at 10 µM
[2] = biological target: Mitogen-activated protein kinase 3 (Homo sapiens, UniProt P27361); experiment: DRUGMATRIX: Protein Serine/Threonine Kinase, ERK1 enzyme inhibition (substrate: Myelin Basic Protein); set-up: species or system Escherichia coli; conditions: Not Active = under 50% inhibition at 10 µM
Mitogen-activated protein kinase 3, sequence (P27361 whole entry): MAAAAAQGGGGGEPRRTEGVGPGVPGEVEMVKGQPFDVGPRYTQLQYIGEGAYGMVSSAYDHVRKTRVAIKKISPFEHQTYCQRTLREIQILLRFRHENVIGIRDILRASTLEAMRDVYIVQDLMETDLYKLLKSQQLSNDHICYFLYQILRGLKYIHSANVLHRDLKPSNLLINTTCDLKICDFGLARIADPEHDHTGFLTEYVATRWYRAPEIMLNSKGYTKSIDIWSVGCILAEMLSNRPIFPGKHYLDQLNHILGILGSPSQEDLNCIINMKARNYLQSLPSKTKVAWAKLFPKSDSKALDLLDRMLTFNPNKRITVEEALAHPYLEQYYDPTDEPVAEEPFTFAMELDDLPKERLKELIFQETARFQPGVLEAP

[3] = DRUGMATRIX: Phosphodiesterase PDE3 enzyme inhibition (substrate: [3H]cAMP + cAMP); assay type: tissue-based, Homo sapiens; conditions: platelet; Not Active = under 50% inhibition at 10 µM
[4] = DRUGMATRIX: Glutamate, NMDA, Phencyclidine radioligand binding (ligand: [3H] TCP); assay type: cell membranes, Rattus norvegicus, Wistar, Cerebral cortex, Membrane; conditions: Not Active = under 50% inhibition at 10 µM
[5] = biological target: T1, Alpha-1D adrenergic receptor (Homo sapiens, UniProt P25100); assay type: cell membranes, HEK293, Membrane; conditions: for pIC50: read-out: IC50; for pKi: read-out: Ki; as to all read-outs here: in other assays of this panel Not Active means under 50% inhibition at 10 µM
T1 sequence (P25100 whole entry): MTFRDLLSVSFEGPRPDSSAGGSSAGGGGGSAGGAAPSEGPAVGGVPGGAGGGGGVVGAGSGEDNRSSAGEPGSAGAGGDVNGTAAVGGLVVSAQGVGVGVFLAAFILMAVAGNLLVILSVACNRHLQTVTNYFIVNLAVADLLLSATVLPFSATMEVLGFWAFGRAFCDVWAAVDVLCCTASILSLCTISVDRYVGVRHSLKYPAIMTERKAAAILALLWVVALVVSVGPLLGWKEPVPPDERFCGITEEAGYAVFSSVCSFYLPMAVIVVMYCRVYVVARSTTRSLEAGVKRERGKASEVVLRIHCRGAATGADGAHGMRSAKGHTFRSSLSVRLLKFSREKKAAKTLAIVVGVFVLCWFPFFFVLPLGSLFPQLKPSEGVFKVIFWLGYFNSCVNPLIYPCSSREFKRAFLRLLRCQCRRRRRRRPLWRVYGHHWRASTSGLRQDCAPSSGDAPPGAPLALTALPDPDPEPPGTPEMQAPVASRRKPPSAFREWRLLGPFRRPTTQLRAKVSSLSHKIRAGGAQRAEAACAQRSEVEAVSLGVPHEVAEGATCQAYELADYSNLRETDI

[6] = biological target: T2, Amine oxidase [flavin-containing] A (Homo sapiens, UniProt P21397); experiment: DRUGMATRIX: Monoamine Oxidase MAO-A enzyme inhibition (substrate: Kynuramine); set-up: species or system BTI-TN-5B1-4; conditions: bti-tn-5b1-4; Not Active = under 50% inhibition at 10 µM
T2 sequence (P21397 whole entry): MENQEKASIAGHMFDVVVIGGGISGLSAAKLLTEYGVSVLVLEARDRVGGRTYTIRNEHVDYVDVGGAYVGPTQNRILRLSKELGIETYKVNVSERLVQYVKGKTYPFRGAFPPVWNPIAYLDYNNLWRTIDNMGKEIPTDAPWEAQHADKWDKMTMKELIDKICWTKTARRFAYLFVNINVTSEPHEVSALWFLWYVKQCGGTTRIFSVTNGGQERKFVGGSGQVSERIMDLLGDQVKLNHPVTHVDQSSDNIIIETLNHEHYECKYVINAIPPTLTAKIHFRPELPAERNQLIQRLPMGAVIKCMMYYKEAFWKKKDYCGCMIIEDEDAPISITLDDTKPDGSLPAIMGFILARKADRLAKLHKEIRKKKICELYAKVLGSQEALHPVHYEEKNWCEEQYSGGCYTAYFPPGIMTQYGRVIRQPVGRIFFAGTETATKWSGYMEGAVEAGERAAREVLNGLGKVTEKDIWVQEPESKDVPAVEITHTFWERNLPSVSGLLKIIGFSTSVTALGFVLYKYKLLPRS

[7] = biological target: 5-hydroxytryptamine receptor 6 (Homo sapiens, UniProt P50406); assay type: cell membranes, HeLa, Membrane; conditions: for pIC50: read-out: IC50; for pKi: read-out: Ki; as to all read-outs here: in other assays of this panel Not Active means under 50% inhibition at 10 µM
5-hydroxytryptamine receptor 6, sequence (P50406 whole entry): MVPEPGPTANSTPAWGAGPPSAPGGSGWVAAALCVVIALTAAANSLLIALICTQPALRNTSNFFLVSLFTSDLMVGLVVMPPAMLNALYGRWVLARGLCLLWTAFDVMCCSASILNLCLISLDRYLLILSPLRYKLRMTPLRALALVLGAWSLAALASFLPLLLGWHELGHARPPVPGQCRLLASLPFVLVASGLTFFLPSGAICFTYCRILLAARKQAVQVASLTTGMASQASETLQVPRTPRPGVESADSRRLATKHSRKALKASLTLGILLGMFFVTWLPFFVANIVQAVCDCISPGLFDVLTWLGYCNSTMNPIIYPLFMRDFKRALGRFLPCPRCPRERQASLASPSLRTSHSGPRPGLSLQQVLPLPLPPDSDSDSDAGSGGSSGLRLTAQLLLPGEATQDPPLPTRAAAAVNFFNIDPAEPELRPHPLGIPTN

| Compound | IC50 (Glycine receptor) | IC50 [1] | IC50 [2] | IC50 [3] | Ki [3] | IC50 [4] | Ki [4] | IC50 ([5]; hek293) | IC50 [6] | IC50 ([7]; hela) | Ki (Glycine receptor) | Ki [1] | Ki [2] | Ki ([5]; hek293) | Ki [6] | Ki ([7]; hela) | pIC50 [5] | pKi [5] | pIC50 [7] | pKi [7] |
| --- | --- | --- | --- | --- | --- | --- | --- | --- | --- | --- | --- | --- | --- | --- | --- | --- | --- | --- | --- | --- |
| Cc1onc(-c2ccccc2Cl)c1C(=O)N[C@@H]1C(=O)N2[C@@H]1SC(C)(C)[C@@H]2C(=O)O [CLOXACILLIN] | Not Active | Not Active | Not Active | Not Active | Not Active | Not Active | Not Active | Not Active | Not Active | Not Active |  |  |  |  |  |  |  |  |  |  |
| CADMIUM ACETATE | Not Active | Not Active | Not Active | Not Active | Not Active | Not Active | Not Active | Not Active | Not Active | Not Active | Not Active | Not Active | Not Active | Not Active | Not Active | Not Active |  |  |  |  |
| CNCCCN1c2ccccc2CCc2ccccc21 [DESIPRAMINE] | Not Active | Not Active | Not Active | Not Active | Not Active | Not Active | Not Active | Not Active | Not Active | Not Active |  |  |  |  |  |  |  |  |  |  |
| C[C@]12CC[C@@H]3c4ccc(O)cc4CC[C@H]3[C@@H]1CCC2=O [ESTRONE] | Not Active | Not Active | Not Active | Not Active | Not Active | Not Active | Not Active | Not Active | Not Active | Not Active |  |  |  |  |  |  |  |  |  |  |
| C[C@]12CCC(=O)C=C1CC[C@@H]1[C@@H]2CC[C@@]2(C)[C@H]1CC[C@]2(C)O [METHYLTESTOSTERONE] | Not Active | Not Active | Not Active | Not Active | Not Active | Not Active | Not Active | Not Active | Not Active | Not Active |  |  |  |  |  |  |  |  |  |  |
| CC(=O)O[C@@]12CO[C@@H]1C[C@H](O)[C@@]1(C)C(=O)[C@H](O)C3=C(C)[C@@H](OC(=O)[C@H](O)[C@@H](NC(=O)OC(C)(C)C)c4ccccc4)C[C@@](O)([C@@H](OC(=O)c4ccccc4)[C@H]21)C3(C)C.O.O.O [DOCETAXEL] | Not Active | Not Active | Not Active | Not Active | Not Active | Not Active | Not Active | Not Active | Not Active | Not Active |  |  |  |  |  |  |  |  |  |  |
| Nc1ncn([C@@H]2O[C@H](CO)[C@@H](O)[C@H]2O)c(=O)n1 [AZACITIDINE] | Not Active | Not Active | Not Active | Not Active | Not Active | Not Active | Not Active | Not Active | Not Active | Not Active |  |  |  |  |  |  |  |  |  |  |
| C[C@](N)(Cc1ccc(O)c(O)c1)C(=O)O [METHYLDOPA] | Not Active | Not Active | Not Active | Not Active | Not Active | Not Active | Not Active | Not Active | Not Active | Not Active |  |  |  |  |  |  |  |  |  |  |
| O=C(CCCN1CC=C(n2c(=O)[nH]c3ccccc32)CC1)c1ccc(F)cc1 [DROPERIDOL] | Not Active | Not Active | Not Active | Not Active | Not Active | Not Active | Not Active |  | Not Active | Not Active |  |  |  |  |  |  | 7.08 | 7.39 |  |  |
| CN(C)CCCN1c2ccccc2Sc2ccccc21 [PROMAZINE] | Not Active | Not Active | Not Active | Not Active | Not Active | Not Active | Not Active |  | Not Active |  |  |  |  |  |  |  | 7.89 | 8.21 | 6.56 | 6.90 |
| CN(C)c1nc(N(C)C)nc(N(C)C)n1 [ALTRETAMINE] | Not Active | Not Active | Not Active | Not Active | Not Active | Not Active | Not Active | Not Active | Not Active | Not Active |  |  |  |  |  |  |  |  |  |  |
| CC1CC(OC(=O)C(O)c2ccccc2)CC(C)(C)C1 (stereo unspecified) [CYCLANDELATE] | Not Active | Not Active | Not Active | Not Active | Not Active | Not Active | Not Active | Not Active | Not Active | Not Active |  |  |  |  |  |  |  |  |  |  |
| c1ccc2c(c1)c1cccc3ccc4cccc2c4c31 [BENZO[E]PYRENE] | Not Active | Not Active | Not Active | Not Active | Not Active | Not Active | Not Active | Not Active | Not Active | Not Active |  |  |  |  |  |  |  |  |  |  |
| CC(C)[C@@]1(NC(=O)[C@@H]2C[C@@H]3c4cccc5[nH]cc(c45)C[C@H]3N(C)C2)O[C@@]2(O)[C@@H]3CCCN3C(=O)[C@H](Cc3ccccc3)N2C1=O.CS(=O)(=O)O [DIHYDROERGOCRISTINE MESYLATE] | Not Active | Not Active | Not Active | Not Active | Not Active | Not Active | Not Active |  | Not Active |  |  |  |  |  |  |  | 8.13 | 8.44 | 7.38 | 7.72 |
| CC[C@@]1(O)C[C@H](O[C@H]2C[C@H](N(C)C)[C@H](O[C@H]3C[C@H](O)[C@H](O[C@H]4CCC(=O)[C@H](C)O4)[C@H](C)O3)[C@H](C)O2)c2c(cc3c(c2O)C(=O)c2c(O)cccc2C3=O)[C@H]1C(=O)OC [ACLARUBICIN] | Not Active | Not Active | Not Active | Not Active | Not Active | Not Active | Not Active | Not Active | Not Active | Not Active |  |  |  |  |  |  |  |  |  |  |
| CCn1cc(C(=O)O)c(=O)c2cc(F)c(N3CCNCC3)cc21 [NORFLOXACIN] | Not Active | Not Active | Not Active | Not Active | Not Active | Not Active | Not Active | Not Active | Not Active | Not Active |  |  |  |  |  |  |  |  |  |  |
| Cc1c(O)c(=O)ccn1C [DEFERIPRONE] | Not Active | Not Active | Not Active | Not Active | Not Active | Not Active | Not Active | Not Active | Not Active | Not Active |  |  |  |  |  |  |  |  |  |  |
| NC1=NC(=O)C(c2ccccc2)O1 (stereo unspecified) [PEMOLINE] | Not Active | Not Active | Not Active | Not Active | Not Active | Not Active | Not Active | Not Active | Not Active | Not Active |  |  |  |  |  |  |  |  |  |  |
| Sc1ncnc2nc[nH]c12 [MERCAPTOPURINE ANHYDROUS] | Not Active | Not Active | Not Active | Not Active | Not Active | Not Active | Not Active | Not Active | Not Active | Not Active |  |  |  |  |  |  |  |  |  |  |
| COCCc1ccc(OCC(O)CNC(C)C)cc1 (stereo unspecified) [METOPROLOL] | Not Active | Not Active | Not Active | Not Active | Not Active | Not Active | Not Active | Not Active | Not Active | Not Active |  |  |  |  |  |  |  |  |  |  |
